In assay [1] the target is T1, Tyrosine-protein kinase JAK3 (Homo sapiens) (UniProt P52333).
T1 sequence (whole entry): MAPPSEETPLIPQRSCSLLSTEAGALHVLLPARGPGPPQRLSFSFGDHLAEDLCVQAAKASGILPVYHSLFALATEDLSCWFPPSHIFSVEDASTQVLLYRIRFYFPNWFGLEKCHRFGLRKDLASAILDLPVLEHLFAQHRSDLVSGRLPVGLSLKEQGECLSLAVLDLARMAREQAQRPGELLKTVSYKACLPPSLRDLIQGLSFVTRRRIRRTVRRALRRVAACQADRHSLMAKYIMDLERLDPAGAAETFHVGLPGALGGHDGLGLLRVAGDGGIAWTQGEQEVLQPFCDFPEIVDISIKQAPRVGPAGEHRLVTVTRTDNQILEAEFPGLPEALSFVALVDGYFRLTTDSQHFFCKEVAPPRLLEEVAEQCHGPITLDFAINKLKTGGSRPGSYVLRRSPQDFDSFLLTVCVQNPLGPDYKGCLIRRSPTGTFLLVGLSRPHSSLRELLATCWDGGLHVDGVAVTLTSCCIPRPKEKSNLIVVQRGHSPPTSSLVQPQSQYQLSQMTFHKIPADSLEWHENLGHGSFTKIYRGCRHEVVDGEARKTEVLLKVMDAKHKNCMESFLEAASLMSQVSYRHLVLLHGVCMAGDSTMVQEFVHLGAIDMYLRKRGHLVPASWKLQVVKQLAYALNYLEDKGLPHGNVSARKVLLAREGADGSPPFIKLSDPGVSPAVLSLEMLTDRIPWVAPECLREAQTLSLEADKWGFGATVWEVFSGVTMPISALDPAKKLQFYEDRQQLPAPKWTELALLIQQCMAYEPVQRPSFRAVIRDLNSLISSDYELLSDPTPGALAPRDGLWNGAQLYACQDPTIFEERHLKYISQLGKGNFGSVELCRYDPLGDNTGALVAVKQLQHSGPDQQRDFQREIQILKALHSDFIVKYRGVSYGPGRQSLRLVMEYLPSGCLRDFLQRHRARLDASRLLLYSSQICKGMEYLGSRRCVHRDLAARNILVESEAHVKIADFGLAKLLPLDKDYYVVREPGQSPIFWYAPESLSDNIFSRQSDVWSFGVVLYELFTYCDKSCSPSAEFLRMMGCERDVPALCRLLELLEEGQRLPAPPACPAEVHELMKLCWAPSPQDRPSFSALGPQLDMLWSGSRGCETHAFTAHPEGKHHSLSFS
The assay can be described thus: Inhibition of human JAK3 (781 to end residues) assessed as residual activity at 100 nM using GGEEEEYFELVKK as substrate after 40 mins in presence of [gamma33P]-ATP by scintillation counting based radiometric assay relative to control.

Assay [2] relates to MOLM-13. Put plainly: Antiproliferative activity against FLT3-ITD-positive human MOLM13 cells assessed as reduction in cell growth after 72 hrs by MTT assay. Particulars: MOLM-13, 72 h. It counts as functional, cell-based. Background: Formazan colour is commonly taken as a measure of viable cells.
For assay [3], the target named is Tyrosine-protein kinase JAK2 (Homo sapiens, UniProt O60674). Put plainly: Inhibition of human JAK2 (808 to end residues) assessed as residual activity at 100 nM using KTFCGTPEYLAP as substrate after 40 mins in presence of [gamma33P]-ATP by scintillation counting based radiometric assay relative to control.
Assay [4] deals with Receptor-type tyrosine-protein kinase FLT3 (Homo sapiens) (UniProt P36888). The assay can be described thus: Inhibition of human FLT3 (564 to end residues) assessed as residual activity at 100 nM using EAIYAAPFAKKK as substrate after 40 mins in presence of [gamma33P]-ATP by scintillation counting based radiometric assay relative to control.
In assay [5] the target is Tyrosine-protein kinase JAK1 (Homo sapiens, UniProt P23458). Put plainly: Inhibition of human JAK1 (866 to end residues) assessed as residual activity at 100 nM using GEEPLYWSFPAKK as substrate after 40 mins in presence of [gamma33P]-ATP by scintillation counting based radiometric assay relative to control.
Assay [6] concerns MV4-11. The assay can be described thus: Antiproliferative activity against FLT3-ITD-positive human MV4-11 cells assessed as reduction in cell growth after 72 hrs by MTT assay. Particulars: MV4-11, 72 h. It counts as functional, cell-based.

Chain of Tyrosine-protein kinase JAK2 (O60674 whole entry): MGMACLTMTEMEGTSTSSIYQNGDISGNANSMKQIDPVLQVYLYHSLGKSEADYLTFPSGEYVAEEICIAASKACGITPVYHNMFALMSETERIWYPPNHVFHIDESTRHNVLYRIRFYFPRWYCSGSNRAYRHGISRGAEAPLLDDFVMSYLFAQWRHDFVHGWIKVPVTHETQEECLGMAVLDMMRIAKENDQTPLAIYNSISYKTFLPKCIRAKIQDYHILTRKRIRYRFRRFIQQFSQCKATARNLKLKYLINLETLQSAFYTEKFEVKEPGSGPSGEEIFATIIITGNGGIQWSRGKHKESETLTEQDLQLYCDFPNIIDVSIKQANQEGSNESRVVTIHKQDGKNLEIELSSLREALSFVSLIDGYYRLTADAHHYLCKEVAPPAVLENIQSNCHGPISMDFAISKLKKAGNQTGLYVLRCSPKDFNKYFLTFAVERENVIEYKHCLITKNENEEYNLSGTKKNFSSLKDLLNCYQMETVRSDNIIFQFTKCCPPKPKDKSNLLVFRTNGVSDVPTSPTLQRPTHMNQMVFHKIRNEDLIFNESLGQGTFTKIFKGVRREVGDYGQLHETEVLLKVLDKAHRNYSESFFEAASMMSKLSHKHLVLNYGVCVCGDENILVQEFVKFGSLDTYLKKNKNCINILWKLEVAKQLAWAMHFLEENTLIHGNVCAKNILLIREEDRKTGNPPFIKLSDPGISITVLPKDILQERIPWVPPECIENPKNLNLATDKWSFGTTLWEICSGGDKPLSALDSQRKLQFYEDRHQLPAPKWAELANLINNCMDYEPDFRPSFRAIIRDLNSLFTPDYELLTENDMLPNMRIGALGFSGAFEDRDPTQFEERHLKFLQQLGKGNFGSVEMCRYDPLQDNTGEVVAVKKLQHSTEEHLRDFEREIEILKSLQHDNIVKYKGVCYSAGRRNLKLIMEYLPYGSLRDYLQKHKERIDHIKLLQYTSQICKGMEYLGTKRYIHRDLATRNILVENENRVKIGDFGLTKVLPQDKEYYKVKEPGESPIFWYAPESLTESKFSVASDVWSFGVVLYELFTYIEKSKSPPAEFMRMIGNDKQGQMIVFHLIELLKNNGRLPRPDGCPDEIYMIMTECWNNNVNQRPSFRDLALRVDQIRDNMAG
Chain of Tyrosine-protein kinase JAK1 (P23458 whole entry): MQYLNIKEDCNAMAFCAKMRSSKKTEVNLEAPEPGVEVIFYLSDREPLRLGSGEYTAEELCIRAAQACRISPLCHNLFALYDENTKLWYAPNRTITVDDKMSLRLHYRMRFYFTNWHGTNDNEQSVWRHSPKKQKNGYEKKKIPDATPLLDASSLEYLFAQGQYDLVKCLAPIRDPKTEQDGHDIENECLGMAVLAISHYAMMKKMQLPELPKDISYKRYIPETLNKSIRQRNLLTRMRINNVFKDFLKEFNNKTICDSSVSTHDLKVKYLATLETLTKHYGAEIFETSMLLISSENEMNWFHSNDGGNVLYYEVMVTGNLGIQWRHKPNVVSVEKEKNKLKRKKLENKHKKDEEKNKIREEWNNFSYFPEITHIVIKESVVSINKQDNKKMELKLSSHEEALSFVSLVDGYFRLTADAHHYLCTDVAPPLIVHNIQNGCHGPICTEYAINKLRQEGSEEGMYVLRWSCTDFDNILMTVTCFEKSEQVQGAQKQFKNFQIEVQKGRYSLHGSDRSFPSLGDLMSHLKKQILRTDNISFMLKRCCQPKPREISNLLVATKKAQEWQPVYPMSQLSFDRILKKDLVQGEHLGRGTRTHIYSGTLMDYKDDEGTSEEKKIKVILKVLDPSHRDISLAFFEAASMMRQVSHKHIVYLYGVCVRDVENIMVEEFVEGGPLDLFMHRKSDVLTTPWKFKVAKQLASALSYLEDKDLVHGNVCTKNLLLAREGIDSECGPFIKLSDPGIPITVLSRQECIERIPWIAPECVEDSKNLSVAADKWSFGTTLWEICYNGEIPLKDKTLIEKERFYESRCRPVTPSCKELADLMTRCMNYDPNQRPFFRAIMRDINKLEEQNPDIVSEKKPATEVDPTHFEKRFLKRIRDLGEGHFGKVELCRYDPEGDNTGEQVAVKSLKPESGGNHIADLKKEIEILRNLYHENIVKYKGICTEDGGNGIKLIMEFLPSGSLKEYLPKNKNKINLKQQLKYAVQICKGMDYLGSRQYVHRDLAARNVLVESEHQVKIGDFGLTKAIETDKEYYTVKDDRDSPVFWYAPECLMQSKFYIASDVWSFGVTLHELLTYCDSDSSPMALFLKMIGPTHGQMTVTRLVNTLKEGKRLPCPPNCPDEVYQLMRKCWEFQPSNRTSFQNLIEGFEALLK
Chain of Receptor-type tyrosine-protein kinase FLT3 (Homo sapiens) (P36888 whole entry): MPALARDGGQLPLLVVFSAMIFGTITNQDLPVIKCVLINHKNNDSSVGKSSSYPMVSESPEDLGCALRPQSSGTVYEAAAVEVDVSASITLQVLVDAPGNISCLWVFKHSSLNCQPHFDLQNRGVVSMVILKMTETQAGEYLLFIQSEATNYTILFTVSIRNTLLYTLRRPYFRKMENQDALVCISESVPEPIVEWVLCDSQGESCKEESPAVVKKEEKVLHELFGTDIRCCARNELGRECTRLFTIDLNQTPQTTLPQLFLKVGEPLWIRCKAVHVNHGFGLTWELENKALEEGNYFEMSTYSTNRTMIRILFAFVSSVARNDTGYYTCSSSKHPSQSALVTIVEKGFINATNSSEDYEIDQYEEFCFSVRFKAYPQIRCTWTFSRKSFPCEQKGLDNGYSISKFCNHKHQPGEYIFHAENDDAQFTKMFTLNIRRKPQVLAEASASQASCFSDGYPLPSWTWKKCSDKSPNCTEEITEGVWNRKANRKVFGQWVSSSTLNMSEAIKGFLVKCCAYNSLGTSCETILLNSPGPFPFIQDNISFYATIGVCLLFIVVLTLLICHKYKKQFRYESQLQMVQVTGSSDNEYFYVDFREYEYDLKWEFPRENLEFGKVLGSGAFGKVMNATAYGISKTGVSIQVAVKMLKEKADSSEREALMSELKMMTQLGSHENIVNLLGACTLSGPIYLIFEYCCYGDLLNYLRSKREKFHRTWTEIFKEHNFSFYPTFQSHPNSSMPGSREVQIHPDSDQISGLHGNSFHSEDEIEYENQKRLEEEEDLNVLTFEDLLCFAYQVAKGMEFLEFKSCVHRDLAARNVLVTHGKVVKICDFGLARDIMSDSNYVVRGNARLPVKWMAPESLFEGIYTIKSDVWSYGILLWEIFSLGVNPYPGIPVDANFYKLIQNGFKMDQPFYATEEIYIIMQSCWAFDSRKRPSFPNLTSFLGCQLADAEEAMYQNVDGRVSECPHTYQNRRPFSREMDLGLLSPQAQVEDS

Turning to `CCN(CCN1CCOCC1)C1CCN(c2ccc(Nc3ncc(C)c(-c4cnn(C(C)C)c4)n3)cc2F)CC1`, the Activity was 33% in assay [1], 11% in assay [3], 7% in assay [4] and 23% in assay [5]. Further, the figures for the IC50 in assay [2] and in assay [6] were 150 nM and 43 nM, respectively.

With `Cc1cnc(Nc2ccc(N3CCC(N(C)CCN4CCCCC4)CC3)c(F)c2)nc1-c1cnn(C(C)C)c1`, the Activity amounted to 38% in assay [1], 4% in assay [3], 6% in assay [4] and 21% in assay [5]. For the same compound, the IC50 in assay [2] stood at 170 nM; in assay [6], 12 nM.

Consider `CCCn1cc(-c2nc(Nc3ccc(N4CCN(CC)CC4)cc3F)ncc2F)cn1`, for which the IC50 in assay [2] was more than 10000 nM; in assay [6] it was 4200 nM.

With `CC(C)n1cc(-c2nc(Nc3ccc(N4CCN(C)CC4)c(F)c3)ncc2F)cn1`, the values for the IC50 in assay [2] and in assay [6] were 940 nM and 26 nM, respectively.

As for `CC(C)n1cc(-c2nc(Nc3ccc(N4CCN(C5CCN(C)CC5)CC4)c(F)c3)ncc2F)cn1`, the Activity in assay [1] was found to be 44%; in assay [3] it was 10%; in assay [4], 10%; in assay [5] it was 54%. Moreover, the IC50 in assay [2] is 590 nM; in assay [6], 36 nM.

Turning to `CCN1CCN(c2ccc(Nc3ncc(F)c(-c4cnn(C(C)C)c4)n3)cc2F)CC1`, the Activity turned out to be 66% in assay [1], 17% in assay [3], 17% in assay [4] and 62% in assay [5]. Further, the results for the IC50 in assay [2] and in assay [6] were 250 nM and 31 nM, respectively.

With `CN1CCN(c2ccc(Nc3ncc(F)c(-c4cnn(C5CCCC5)c4)n3)cc2F)CC1`, the IC50 in assay [6] worked out at 8300 nM.

Regarding `Cc1cnc(Nc2ccc(N3CCN(C)CC3)c(F)c2)nc1-c1cnn(C(C)C)c1`, the Activity was 40% in assay [1], 3% in assay [3], 6% in assay [4] and 35% in assay [5]. The IC50 turned out to be 120 nM in assay [2] and 42 nM in assay [6].

Turning to `CCN1CCN(c2ccc(Nc3ncc(C)c(-c4cnn(C(C)C)c4)n3)cc2F)CC1`, the IC50 was determined as 4000 nM in assay [2] and 1100 nM in assay [6].

On to `CC(C)n1cc(-c2nc(Nc3ccc(N4CCC(N(C)C)CC4)c(F)c3)ncc2F)cn1`, for which the Activity was 48% in assay [1], 6% in assay [3], 9% in assay [4] and 57% in assay [5]. In addition, the IC50 came to 540 nM in assay [2] and 32 nM in assay [6].

`Cc1cnc(Nc2ccc(N3CCC(N(C)CCCCCO)CC3)c(F)c2)nc1-c1cnn(C(C)C)c1`: the IC50 in assay [2] is more than 10000 nM; in assay [6] it was more than 1000 nM.

`Cc1cnc(Nc2ccc(N3CCC(N(C)CCN4CCOCC4)CC3)c(F)c2)nc1-c1cnn(C(C)C)c1`: the Activity in assay [1] is 37%; in assay [3], 23%; in assay [4] it was 5%; in assay [5] it was 20%. Moreover, the IC50 turned out to be 89 nM in assay [2] and 18 nM in assay [6].

For the compound `CCCCn1cc(-c2nc(Nc3ccc(N4CCN(C)CC4)c(F)c3)ncc2F)cn1`, the Activity in assay [1] was 41%; in assay [3], 15%; in assay [4], 11%; in assay [5], 49%. In addition, the IC50 was found to be 540 nM in assay [2] and 27 nM in assay [6].

`CCOCCN(C)C1CCN(c2ccc(Nc3ncc(C)c(-c4cnn(C(C)C)c4)n3)cc2F)CC1`: the Activity came out at 28% in assay [1], 9% in assay [3], 5% in assay [4] and 19% in assay [5]. Also, the IC50 in assay [2] amounted to 28 nM; in assay [6], 7.3 nM.

With `CCCN(C)C1CCN(c2ccc(Nc3ncc(C)c(-c4cnn(C(C)C)c4)n3)cc2F)CC1`, the Activity in assay [1] came to 9%; in assay [3], 3%; in assay [4], 6%; in assay [5], 24%. For the same compound, the results for the IC50 in assay [2] and in assay [6] were 47 nM and 7.3 nM, respectively.

For the compound `CC(C)n1cc(-c2nc(Nc3ccc(N4CCC(N5CCCCC5)CC4)c(F)c3)ncc2F)cn1`, the Activity in assay [1] was 47%; in assay [3], 8%; in assay [4], 10%; in assay [5], 36%. For the same compound, the IC50 in assay [2] was determined as 100 nM; in assay [6] it was 26 nM.

Turning to `Cc1cnc(Nc2ccc(N3CCC(N(C)CC4CC4)CC3)c(F)c2)nc1-c1cnn(C(C)C)c1`, the Activity in assay [1] came to 31%; in assay [3] it was 15%; in assay [4], 4%; in assay [5] it was 20%. Moreover, the IC50 in assay [2] is 31 nM; in assay [6], 8.1 nM.

As to `CC(C)n1cc(-c2nc(Nc3ccc(N4CCN(C)CC4)cc3F)ncc2F)cn1`, in assay [6], the IC50 is 7800 nM.

Take `Cc1cnc(Nc2ccc(N3CCC(NCCO)CC3)c(F)c2)nc1-c1cnn(C(C)C)c1`: the IC50 in assay [2] was 550 nM; in assay [6], 200 nM.

For the compound `Cc1cnc(Nc2ccc(N3CCC(N(C)CC4CCCO4)CC3)c(F)c2)nc1-c1cnn(C(C)C)c1` (configuration not stated), the Activity in assay [1] was found to be 36%; in assay [3], 10%; in assay [4], 6%; in assay [5], 23%. Besides, the IC50 turned out to be 70 nM in assay [2] and 30 nM in assay [6].

In the case of `CCCN(CCN1CCOCC1)C1CCN(c2ccc(Nc3ncc(C)c(-c4cnn(C(C)C)c4)n3)cc2F)CC1`, the Activity in assay [1] was determined as 9%; in assay [3], 8%; in assay [4], 8%; in assay [5] it was 20%. The IC50 in assay [2] and in assay [6] was 210 nM each time.

`CCCCCCN(C)C1CCN(c2ccc(Nc3ncc(C)c(-c4cnn(C(C)C)c4)n3)cc2F)CC1`: the Activity turned out to be 44% in assay [1], 18% in assay [3], 6% in assay [4] and 26% in assay [5]. Moreover, the IC50 in assay [2] came out at 210 nM; in assay [6], 70 nM.

As for `CCCn1cc(-c2nc(Nc3ccc(N4CCN(CC)CC4)c(F)c3)ncc2F)cn1`, the Activity in assay [1] is 52%; in assay [3] it was 27%; in assay [4], 15%; in assay [5], 59%. In addition, the IC50 in assay [2] came out at 410 nM; in assay [6] it was 61 nM.

Turning to `CCCn1cc(-c2nc(Nc3ccc(N4CCN(C)CC4)cc3F)ncc2F)cn1`, the IC50 in assay [2] amounted to 9700 nM; in assay [6], 8100 nM.

For the compound `Cc1cnc(Nc2ccc(N3CCC(CO)CC3)c(F)c2)nc1-c1cnn(C(C)C)c1`, the IC50 in assay [2] was 840 nM; in assay [6], 160 nM.

Turning to `CCCn1cc(-c2nc(Nc3ccc(N4CCN(C)CC4)c(F)c3)ncc2F)cn1`, the Activity worked out at 69% in assay [1], 19% in assay [3], 14% in assay [4] and 48% in assay [5]. Also, the IC50 in assay [2] is 490 nM; in assay [6] it was 57 nM.

On to `CCN1CCN(c2ccc(Nc3ncc(F)c(-c4cnn(C5CCCC5)c4)n3)cc2F)CC1`, for which the Activity was 68% in assay [1], 27% in assay [3], 12% in assay [4] and 57% in assay [5]. In addition, the 50% inhibitory concentration (IC50) in assay [2] was 410 nM; in assay [6], 27 nM.

Consider `CCCN1CCC(n2cc(-c3nc(Nc4ccc(N5CCN(C)CC5)c(F)c4)ncc3F)cn2)CC1`, for which the IC50 in assay [2] was found to be 190 nM; in assay [6], 110 nM.

As to `CN(C)C1CCN(c2ccc(Nc3ncc(F)c(-c4cnn(C5CCCC5)c4)n3)cc2F)CC1`, the IC50 in assay [6] amounted to 4500 nM.

For orientation: IC50 means the concentration at which inhibition is half-maximal.

The record behind these values is ChEMBL document CHEMBL4321837, “Discovery of Potent and Orally Effective Dual Janus Kinase 2/FLT3 Inhibitors for the Treatment of Acute Myelogenous Leukemia and Myeloproliferative Neoplasms” (J Med Chem, 2019).
